Measured values from article PMC4220649 (Blood Cancer Journal, 2014).
Several values for one entry are separate records, joined by “and”; a condition that tells them apart may be missing. Identical values can stand only once. Entries after “also recorded” stand apart in the source; their conditions may differ.

What was measured:
[1] = tested on: patients with relapsed or refractory MM; details: cited from earlier work
[2] = Urine pharmacokinetics of ixazomib; assay type: in vivo, human
[3] = Plasma pharmacokinetics of ixazomib after IV bolus; assay type: in vivo, human; details: for DN AUC0–168 h: dose normalized; for DN AUC0–168 h / C0 / half-life / AUC0–168 h: plasma
[4] = weekly oral ixazomib, relapsed or refractory MM, after multiple dosing; cited from earlier work
[5] = day 15, IV 1.4 mg/m^2, n=4, geometric mean (%CV)
[6] = day 15, IV 3.11 mg/m^2, n=2, individual values
[7] = day 1, IV 1.4 mg/m^2, n=4, geometric mean (%CV)
[8] = day 1, IV 1.76 mg/m^2, n=6, geometric mean (%CV)
[9] = day 1, IV 2.34 mg/m^2, n=7, geometric mean (%CV)
[10] = day 1, IV 3.11 mg/m^2, n=5, geometric mean (%CV)
[11] = day 15, IV 0.5 mg/m^2, n=1, individual value
[12] = day 15, IV 1 mg/m^2, n=1, individual value
[13] = day 15, IV 2.34 mg/m^2, n=7, geometric mean (%CV)

For `CC(C)C[C@H](NC(=O)CNC(=O)c1cc(Cl)ccc1Cl)B(O)O` [ixazomib], the “Any-grade drug-related PN, patients” value ([1]; weekly oral ixazomib in MM) is listed as 20%, the “Drug-related grade 3 PN, patients” value ([1]; weekly oral ixazomib in MM) is listed as 2% and the “Rate of drug-related AEs in the Skin and subcutaneous tissue disorders System Organ Class” value ([1]; weekly oral ixazomib, relapsed or refractory MM) is listed as 22%. The “Fraction of ixazomib excreted unchanged in urine” value ([2]; 25 patients, days 1 and 15, 0 to 4 h) was < 1 % of the administered dose, the CL renal ([2]; human, urine, intravenous) was < 8.5 mL/min and the “Dose proportionality of plasma exposure” value ([3]; 0.5–3.11 mg/m^2) was “increased dose proportionally; also recorded: dose-proportionality of ixazomib exposure”. For the same compound, the “Accumulation of ixazomib between day 1 and day 15 doses” value ([3]; AUC0–168 h, Figure 1d) was “approximately twofold”, the Accumulation ratio [3, 5] was 2.17 (7) and the Accumulation ratio ([3]; day 15, IV 2.34 mg/m^2, n=6, geometric mean (%CV)) was 2.27 (15). For the same compound, the Accumulation ratio [3, 6] was 2.02 and 2.21, the “DN AUC0–168 h” value [3, 7] was 221 (41) hr/ng/ml/mg and the “DN AUC0–168 h” value [3, 8] was 259 (49) hr/ng/ml/mg. For the same compound, the “DN AUC0–168 h” value [3, 9] was 257 (50) hr/ng/ml/mg, the “DN AUC0–168 h” value [3, 10] was 278 (46) hr/ng/ml/mg and the “DN AUC0–168 h” value [3, 11] was 151 h/ng/mL/mg. For the same compound, the “DN AUC0–168 h” value [3, 12] was 385 h/ng/mL/mg, the “DN AUC0–168 h” value [3, 5] was 481 (34) hr/ng/ml/mg and the “DN AUC0–168 h” value [3, 13] was 500 (55) hr/ng/ml/mg. It also gave a C0 ([3]; human, iv, 0.25 mg/m2, C0, plasma, day 1, IV 0.25 mg/m^2, n=1, individual value) of 59.4 ng/mL, a C0 ([3]; human, iv, 1 mg/m2, C0, plasma, day 15, IV 1 mg/m^2, n=1, individual value) of 383 ng/mL and a C0 ([3]; human, iv, 1.4 mg/m2, C0, plasma, day 1, IV 1.4 mg/m^2, n=4, geometric mean (%CV)) of 714 ng/mL. The C0 ([3]; human, iv, 1.4 mg/m2, C0, plasma, day 15, IV 1.4 mg/m^2, n=4, geometric mean (%CV)) was 497 ng/mL, the half-life ([3]; human, iv, 1.4 mg/m2, t½, terminal disposition phase half-life, day 15, IV 1.4 mg/m^2, n=4, geometric mean (%CV)) was 8.71 days and the C0 ([3]; human, iv, 1.76 mg/m2, C0, plasma, day 1, IV 1.76 mg/m^2, n=7, geometric mean (%CV)) was 542 ng/mL. For the same compound, the C0 ([3]; human, iv, 1.76 mg/m2, C0, plasma, day 15, IV 1.76 mg/m^2, n=3, geometric mean (%CV)) was 499 ng/mL, the half-life ([3]; human, iv, 1.76 mg/m2, t½, terminal disposition phase half-life, day 15, IV 1.76 mg/m^2, n=3, geometric mean (%CV)) was 6.08 days and the C0 ([3]; human, iv, 2.34 mg/m2, C0, plasma, day 15, IV 2.34 mg/m^2, n=7, geometric mean (%CV)) was 803 ng/mL. The half-life ([3]; human, iv, 2.34 mg/m2, t½, terminal disposition phase half-life, day 15, IV 2.34 mg/m^2, n=7, geometric mean (%CV)) was 4.5 days, the C0 ([3]; human, iv, 3.11 mg/m2, C0, plasma, day 1, IV 3.11 mg/m^2, n=5, geometric mean (%CV)) was 961 ng/mL and the C0 ([3]; human, iv, 3.11 mg/m2, C0, plasma, day 15, IV 3.11 mg/m^2, n=2, individual values) was 1110 ng/mL. The half-life ([3]; human, iv, 3.11 mg/m2, t½, terminal disposition phase half-life, day 15, IV 3.11 mg/m^2, n=2, individual values) was 4.08 days, the half-life ([3]; human, iv, Terminal half-life, after multiple dosing, weekly IV) was 4 to 12 days and the “Rapid initial disposition phase over by” value ([3]; multi-phasic disposition after IV administration) was ≤ 4 h. The “AUC0–168 h” value [3, 7] was 637 (30) hr/ng/ml, the “AUC0–168 h” value [3, 8] was 821 (48) hr/ng/ml and the “AUC0–168 h” value [3, 9] was 1060 (37) hr/ng/ml. For the same compound, the “AUC0–168 h” value [3, 10] was 1680 (39) hr/ng/ml, the “AUC0–168 h” value [3, 11] was 175 h/ng/mL and the “AUC0–168 h” value [3, 12] was 732 h/ng/mL. For the same compound, the “AUC0–168 h” value [3, 5] was 1390 (24) hr/ng/ ml, the “AUC0–168 h” value [3, 13] was 2110 (41) hr/ng/ ml and the “AUC0–168 h” value [3, 6] was 2090 h/ng/mL and 3080 h/ng/mL. The C0 [3, 6] was 1280 ng/mL and the Terminal half-life [4] was 4 to 12 days.
